In experiment [1] the target is T1, caspase-8 (Homo sapiens, UniProt Q14790).
T1 construct: p10 and p20 subunits (Thornberry, N. A. et al, Nature, 1992, 356, 768) were expressed in E. coli; made in house; host or cells: E. coli
In words: Caspase-8 inhibitory effect (fluorescent substrate AcDEVD-AFC). The experiment is classed as biochemical. Particulars: 25° C., 50 μM AcDEVD-AFC, 2.1 nM caspase-8; for kinact/KI: pH 7.5, read-out: Caspase-8 Kobs/[I] (converted). As for the experimental part: Caspase-1 and caspase-8 known as cysteine proteases in the form of α2β2 were expressed, purified, and activated by modifying a method known in Thornberry, N. A. et al, Nature, 1992, 356, 768. Thornberry, N. A. Methods in Enzymology, 1994, 244, 615. Walker, N. P. C. et al. Cell, 1994, 78, 343, and caspase-9 was also purified by a similar method, and the inhibitory activity against them was tested. Briefly describing, p10 and p20 subunits (Thornberry, N. A. et al, Nature, 1992, 356, 768) were expressed in E. coli and purified by nickel column and anionic exchange chromatography to give caspase-1, caspase-8 and caspase-9. The fluorescent substrate AcYVAD-AFC for thus obtained caspase-1, AcDEVD-AFC for caspase-8, and AcLEHD-AFC for caspase-9 were used for determining specific activity of the synthesized inhibitors. The enzyme reaction was carried out at 25° C. with various concentrations of the inhibitors in a buffer solution containing 50 mM HEPES(pH 7.50), 10% (w/v) sucrose, 0.1% (w/v) CHAPS, 100 mM NaCl, 1 mM EDTA, and 10 mM DTT in the presence of 50 μM AcYVAD-AFC for 10 nM caspase-1, 50 μM AcDEVD-AFC for 2.1 nM caspase-8, and 150 μM AcLEHD-AFC for 200 nM caspase-9. The inhibitory constants Ki and Kobs of the inhibitors were determined by measuring the reaction velocity with the time lapse using a fluorescent spectrometer and by obtaining the initial rate constant. Ki was calculated from the Lineweaver Burk Plot, and Kobs from the following Equation 1. Kobs=−ln(1−At/Aoo)/t Equation 1
At means cleavate rate (%) at time t, and
Aoo means the maximum cleavage rate (%).
Spectra MAX GeminiXS Fluorescent Spectrometer of Molecular Device Co. was used at the excitation wavelength of 405 nm and the emission wavelength of […].

Experiment [2] concerns Jurkat cell (ATCC TIB-152). In words: Jurkat cell apoptosis by Fas antibody, WST-1 method. The experiment is classed as cell-based. Particulars: apoptosis using Fas antibody, WST-1; for IC50: Homo sapiens, Jurkat. The protocol:
The […] inhibitory activity of the inhibitors was determined by subjecting Jurkat cell (ATCC TIB-152) to apoptosis using Fas antibody (Upstate Biotech 05-201) and by detecting the color change according to the WST-1 method known in Francoeur A. M. and Assalian A. (1996) Biochemica 3, 19-25 to observe the amount of alive Jurkat cells when the cells were treated by the inhibitor. Spectra MAX 340 Spectrometer of Molecular Device Co. was used at the absorbance wavelength of 440 nm.

Structures are written as SMILES.

T1 sequence (Q14790 217-374 limits assumed, species assumed): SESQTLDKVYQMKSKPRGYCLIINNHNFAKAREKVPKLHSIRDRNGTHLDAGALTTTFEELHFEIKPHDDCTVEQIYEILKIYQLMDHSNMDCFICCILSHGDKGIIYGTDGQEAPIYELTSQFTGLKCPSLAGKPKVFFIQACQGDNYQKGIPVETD
T1 sequence (Q14790 385-479 limits assumed, species assumed): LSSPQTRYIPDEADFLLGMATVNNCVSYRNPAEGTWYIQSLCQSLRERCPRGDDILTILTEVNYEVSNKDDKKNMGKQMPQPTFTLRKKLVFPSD

`CC(C)[C@@]1(C(=O)N[C@@H](CC(=O)O)C(=O)COc2cc(C(F)(F)F)nn2-c2ccccc2)CC(c2nccc3ccccc23)=NO1` [Iaa19, (3S)-3-({[(5R)-5-isopropyl-3-(1-isoquinolinyl)-4,5-dihydro-5-isoxazolyl]carbonyl}amino)-4-oxo-5-{[1-phenyl-3-(trifluoromethyl)-1H-pyrazol-5-yl]oxy}pentanoic acid]: the kinact/KI in experiment [1] was 267 M⁻¹ s⁻¹. Also, the “Jurkat cell IC50” value in experiment [2] is reported as “No Activity”.

Turning to `CC(C)[C@@]1(C(=O)N[C@@H](CC(=O)O)C(=O)COC2=C(Cc3ccccc3)C(=O)OC2)CC(c2nccc3ccccc23)=NO1` [Iaa20, (3S)-5-[(4-benzyl-5-oxo-2,5-dihydro-3-furanyl)oxy]-3-({[(5R)-5-isopropyl-3-(1-isoquinolinyl)-4,5-dihydro-5-isoxazolyl]carbonyl}amino)-4-oxopentanoic Acid], the kinact/KI in experiment [1] was 617 M⁻¹ s⁻¹. Also, the “Jurkat cell IC50” value in experiment [2] is “No Activity”.

Consider `CC(C)C(=O)OCC(=O)[C@H](CC(=O)O)NC(=O)[C@]1(C(C)C)CC(c2nccc3ccccc23)=NO1` [Iaa21, (3S)-5-(isobutyryloxy)-3-({[(5R)-5-isopropyl-3-(1-isoquinolinyl)-4,5-dihydro-5-isoxazolyl]carbonyl}amino)-4-oxopentanoic acid], for which, in experiment [1], the “Caspase-8 Kobs/[I]” value is “No Activity”. Also, the “Jurkat cell IC50” value in experiment [2] is reported as “No Activity”.

Take `CC(C)[C@@]1(C(=O)N[C@@H](CC(=O)O)C(=O)COc2ccccn2)CC(c2nccc3ccccc23)=NO1` [Iaa23, (3S)-3-({[(5R)-5-isopropyl-3-(1-isoquinolinyl)-4,5-dihydro-5-isoxazolyl]carbonyl}amino)-4-oxo-5-(2-pyridinyloxy)pentanoic Acid]: the kinact/KI in experiment [1] was 483 M⁻¹ s⁻¹. Also, the “Jurkat cell IC50” value in experiment [2] is reported as “No Activity”.

As for `CC(C)[C@@]1(C(=O)N[C@@H](CC(=O)O)C(=O)COc2cccc[n+]2C)CC(c2nccc3ccccc23)=NO1.O=S(=O)([O-])C(F)(F)F` [Iaa25, 2-{[(3S)-4-carboxy-3-({[(5R)-5-isopropyl-3-(1-isoquinolinyl)-4,5-dihydro-5-isoxazolyl]carbonyl}amino)-2-oxobutyl]oxy}-1-methylpyridinium trifluoromethanesulfonate], in experiment [1], the kinact/KI was 2830 M⁻¹ s⁻¹. Also, the “Jurkat cell IC50” value in experiment [2] is “No Activity”.

Regarding `CCC1(C(=O)N[C@@H](CC(=O)O)C(=O)COc2cccc[n+]2C)CC(c2ccccc2C(C)C)=NO1.O=S(=O)([O-])C(F)(F)F` (stereo partly drawn) [Iaa26, 2-{[(3S)-4-carboxy-3-({[5-ethyl-3-(2-isopropylphenyl)-4,5-dihydro-5-isoxazolyl]carbonyl}amino)-2-oxobutyl]oxy}-1-methylpyridinium trifluoromethanesulfonate], in experiment [1], the kinact/KI is 517 M⁻¹ s⁻¹. In addition, in experiment [2], the “Jurkat cell IC50” value was “No Activity”.

Consider `CC(C)C1(C(=O)NC(CC(=O)O)C(=O)CF)CC(c2cc3cc(Cl)ccc3n2C)=NO1` (stereo not drawn) [Iaa27, 3-({[3-(5-chloro-1-methyl-1H-indol-2-yl)-5-isopropyl-4,5-dihydro-5-isoxazolyl]carbonyl}amino)-5-fluoro-4-oxopentanoic acid], for which the kinact/KI in experiment [1] is 13700 M⁻¹ s⁻¹. Also, in experiment [2], the IC50 (commonly the concentration at which inhibition is half-maximal) turned out to be 1300 nM.

`Cc1ccc2c(c1)cc(C1=NOC(C(=O)NC(CC(=O)O)C(=O)CF)(C(C)C)C1)n2C` (stereo not drawn) [Iaa28, 3-({[3-(1,5-dimethyl-1H-indol-2-yl)-5-isopropyl-4,5-dihydro-5-isoxazolyl]carbonyl}amino)-5-fluoro-4-oxopentanoic Acid]: the kinact/KI in experiment [1] is 30000 M⁻¹ s⁻¹. This compound showed an IC50 in experiment [2] of 600 nM.

On to `CCC1(C(=O)N[C@@H](CC(=O)O)C(=O)COc2c(F)c(F)cc(F)c2F)CC(c2ccc3ccccc3c2)=NO1` (stereo partly drawn) [Iee, (3S)-3-({[5-ethyl-3-(2-naphthyl)-4,5-dihydro-5-isoxazolyl]carbonyl}amino)-4-oxo-5-(2,3,5,6-tetrafluorophenoxy)pentanoic acid], for which the kinact/KI in experiment [1] was 3000 M⁻¹ s⁻¹. In experiment [2], this compound registered an IC50 of 32600 nM.

Take `CCC1(C(=O)N[C@@H](CC(=O)O)C(=O)COc2c(F)c(F)cc(F)c2F)CC(c2nccc3ccccc23)=NO1` (stereo partly drawn) [Iff, (3S)-3-({[5-ethyl-3-(1-isoquinolinyl)-4,5-dihydro-5-isoxazolyl]carbonyl}amino)-4-oxo-5-(2,3,5,6-tetrafluorophenoxy)pentanoic acid]: the kinact/KI in experiment [1] was 8330 M⁻¹ s⁻¹. In experiment [2], this compound displayed an IC50 of 1200 nM.

Consider `CCC1(C(=O)NC(CC(=O)O)C(=O)CF)CC(c2ccnc3ccccc23)=NO1` (stereo not drawn) [Ijj, 3-({[5-Ethyl-3-(4-quinolinyl)-4,5-dihydro-5-isoxazolyl]carbonyl}amino)-5-fluoro-4-oxopentanoic acid], for which, in experiment [1], the kinact/KI is 3170 M⁻¹ s⁻¹. Also, the IC50 in experiment [2] came out at 4700 nM.

For `CCC1(C(=O)NC(CC(=O)O)C(=O)CF)CC(c2cc3ccccc3s2)=NO1` (stereo not drawn) [Ikk, 3-({[3-(benzothiophen-2-yl)-5-ethyl-4,5-dihydro-5-isoxazolyl]carbonyl}amino)-5-fluoro-4-oxopentanoic acid], in experiment [1], the kinact/KI is 2000 M⁻¹ s⁻¹. In experiment [2], the IC50 turned out to be 1100 nM.

As for `CCC1(C(=O)N[C@@H](CC(=O)O)C(=O)COc2c(F)c(F)cc(F)c2F)CC(c2c(C)c3ccccc3n2C)=NO1` (stereo partly drawn) [Ill, (3S)-3-({[3-(1,3-dimethyl-1H-indol-2-yl)-5-ethyl-4,5-dihydro-5-isoxazolyl]carbonyl}amino)-4-oxo-5-(2,3,5,6-tetrafluorophenoxy)pentanoic acid], in experiment [1], the kinact/KI was 2170 M⁻¹ s⁻¹. The same compound displayed an IC50 in experiment [2] of 39200 nM.

Consider `CCC1(C(=O)NC(CC(=O)O)C(=O)CF)CC(c2c(C)c3ccccc3n2C)=NO1` (stereo not drawn) [Imm, 3-({[3-(1,3-Dimethyl-1H-indol-2-yl)-5-ethyl-4,5-dihydro-5-isoxazolyl]carbonyl}amino)-5-fluoro-4-oxopentanoic acid], for which the kinact/KI in experiment [1] was 2670 M⁻¹ s⁻¹. Besides, in experiment [2], the IC50 is 2000 nM.

In the case of `CCC1(C(=O)N[C@@H](CC(=O)O)C(=O)COc2c(F)c(F)cc(F)c2F)CC(Cc2cccc3ccccc23)=NO1` (stereo partly drawn) [Inn, (3S)-3-({[5-ethyl-3-(1-naphthylmethyl)-4,5-dihydro-5-isoxazolyl]carbonyl}amino)-4-oxo-5-(2,3,5,6-tetrafluorophenoxy)pentanoic acid], in experiment [1], the kinact/KI was 4330 M⁻¹ s⁻¹. This compound also registered an IC50 in experiment [2] of 6500 nM.

On to `CCC1(C(=O)N[C@@H](CC(=O)O)C(=O)COC(=O)c2c(Cl)cccc2Cl)CC(CCc2cccc3ccccc23)=NO1` (stereo partly drawn) [Ioo, (3S)-5-[(2,6-dichlorobenzoyl)oxy]-3-[({5-ethyl-3-[2-(1-naphthyl)ethyl]-4,5-dihydro-5-isoxazolyl}carbonyl)amino]-4-oxopentanoic acid], for which, in experiment [1], the kinact/KI is 333 M⁻¹ s⁻¹. The IC50 in experiment [2] is 50000 nM.

Take `CCC[C@@]1(C(=O)NC(CC(=O)O)C(=O)CF)CC(c2nccc3ccccc23)=NO1` (stereo partly drawn) [Itt, 5-Fluoro-3-({[(5S)-3-(1-isoquinolinyl)-5-propyl-4,5-dihydro-5-isoxazolyl]carbonyl}amino)-4-oxopentanoic acid]: the kinact/KI in experiment [1] was 7170 M⁻¹ s⁻¹. This compound also registered an IC50 in experiment [2] of 160 nM.

Consider `CC[C@@]1(C(=O)NC(CC(=O)O)C(=O)CF)CC(c2cccc3ccccc23)=NO1` (stereo partly drawn) [Iuu, 3-({[(5S)-5-ethyl-3-(1-naphthyl)-4,5-dihydro-5-isoxazolyl]carbonyl}amino)-5-fluoro-4-oxopentanoic acid], for which the kinact/KI in experiment [1] is 4830 M⁻¹ s⁻¹. Besides, in experiment [2], the IC50 is 980 nM.

Take `CC[C@@]1(C(=O)NC(CC(=O)O)C(=O)CF)CC(c2ccc3ccccc3n2)=NO1` (stereo partly drawn) [Ivv, 3-({[(5S)-5-ethyl-3-(2-quinolinyl)-4,5-dihydro-5-isoxazolyl]carbonyl}amino)-5-fluoro-4-oxopentanoic acid]: the kinact/KI in experiment [1] was 25000 M⁻¹ s⁻¹. Also, the IC50 in experiment [2] was 150 nM.

In the case of `CC[C@]1(C(=O)NC(CC(=O)O)C(=O)CF)CC(c2cc3ccccc3cn2)=NO1` (stereo partly drawn) [Iww, 3-({[(5R)-5-ethyl-3-(3-isoquinolinyl)-4,5-dihydro-5-isoxazolyl]carbonyl}amino)-5-fluoro-4-oxopentanoic Acid], the kinact/KI in experiment [1] is 18300 M⁻¹ s⁻¹. This compound also registered an IC50 in experiment [2] of 1900 nM.

On to `CCC1(C(=O)NC(CC(=O)O)C(=O)CF)CC(c2cccc3cccnc23)=NO1` (stereo not drawn) [Ixx, 3-({[5-ethyl-3-(8-quinolinyl)-4,5-dihydro-5-isoxazolyl]carbonyl}amino)-5-fluoro-4-oxopentanoic acid], for which, in experiment [1], the kinact/KI was 667 M⁻¹ s⁻¹. In experiment [2], this compound showed an IC50 of 26500 nM.

The values above are taken from patent US7557133B2, “Caspase inhibitors containing isoxazoline ring” (LG Life Sciences Ltd., priority 2003, dated 2009).
